Among the test systems are UO-31 renal; OVCAR-3 ovarian; U251 CNS; HCC-2998 colon; NCI-H522 lung; NCI-H226 lung; SNB-75 CNS; HT29 colon; M14 melanoma; IGROV1 ovarian.
What all share (assay): growth of human tumour cells (NCI), 48 h

The structures appear in SMILES notation. “And” between values parts separate entries of the source, which are not always exact repeats. Identical values can stand only once.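 Five concentrations, 48 hours, 96-well plates. GI50 marks 50% less growth. TGI: total growth inhibition.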

Regarding `CC(C)(C)[Si](C)(C)OC1[C@@H](O[Si](C)(C)C(C)(C)C)[C@@H](CNC(=O)NC(=O)NC(=O)CCl)O[C@H]1n1cnc2c(NC(=O)Nc3ccccc3)ncnc21` (some centres undefined), the GI50 is 959 nM with UO-31 renal; 1.82 µM with OVCAR-3 ovarian; 1.56 µM in the assay on U251 CNS; 8.74 µM in the assay with HCC-2998 colon; 0.282 µM in the assay on NCI-H522 lung; 8.67 µM in the assay with NCI-H226 lung. Moreover, the GI50 in the assay with SNB-75 CNS was 5.84 µM; in the assay on HT29 colon, 1430 nM; with M14 melanoma it was 5340 nM; in the assay on IGROV1 ovarian it was 0.361 µM. Besides, the TGI in the assay on UO-31 renal turned out to be 1.89 µM; with OVCAR-3 ovarian it was 4.87 µM; in the assay with U251 CNS, 4.22 µM; in the assay with HCC-2998 colon, 18.6 µM; in the assay with NCI-H522 lung, 0.572 µM; in the assay on NCI-H226 lung, 15.9 µM. The TGI in the assay on SNB-75 CNS stood at 13.9 µM; in the assay on HT29 colon it was 3.67 µM; in the assay with M14 melanoma it was 11800 nM; with IGROV1 ovarian, 1330 nM.
As for `COC(=O)CC1C2(C)C3=C(C)C(c4ccoc4)CC3OC2C2OC(=O)C3(C)C=CC(=O)C1(C)C23` (centres undefined), the TGI in the assay with UO-31 renal turned out to be 2.52 µM; with OVCAR-3 ovarian, 7.56 µM; with U251 CNS it was 2.95 µM; with HCC-2998 colon it was 2.7 µM; with NCI-H522 lung, 3.22 µM; in the assay on NCI-H226 lung, 7.68 µM. Besides, the TGI with SNB-75 CNS is 12.3 µM; with HT29 colon, 2.49 µM; in the assay with M14 melanoma, 3250 nM; in the assay on IGROV1 ovarian it was 3290 nM.
For `Cc1cncc(-c2nc(NCCc3c[nH]c4ccccc34)c3ncn(C(C)C)c3n2)c1`, the GI50 is 3060 nM in the assay on UO-31 renal; 5.67 µM with OVCAR-3 ovarian; 4.96 µM in the assay on U251 CNS; 4.12 µM in the assay on HCC-2998 colon; 5.66 µM in the assay with NCI-H522 lung; 4.69 µM in the assay with NCI-H226 lung. In addition, the GI50 in the assay with SNB-75 CNS was 4.87 µM; in the assay on HT29 colon, 2110 nM; in the assay with M14 melanoma, 3940 nM; in the assay on IGROV1 ovarian, 5.94 µM. Also, the TGI with UO-31 renal was 12.9 µM; in the assay on OVCAR-3 ovarian it was 40.9 µM; in the assay with U251 CNS, 39.6 µM; with HCC-2998 colon it was 15.1 µM; in the assay on NCI-H522 lung, 23.2 µM; in the assay with NCI-H226 lung it was 20.5 µM. The TGI came out at 21.1 µM in the assay with SNB-75 CNS, 5.17 µM in the assay on HT29 colon, 16900 nM with M14 melanoma and 22100 nM with IGROV1 ovarian.
Consider `CN1C(c2ccccc2)CC(C)(O)CC1c1ccccc1` (centres undefined), for which the TGI with UO-31 renal, with OVCAR-3 ovarian, in the assay with U251 CNS, in the assay on HCC-2998 colon, in the assay on NCI-H522 lung and with NCI-H226 lung was greater than 100 µM in each case. For the same compound, the TGI in the assay with SNB-75 CNS was greater than 100 µM; in the assay on HT29 colon it was greater than 100 µM; with M14 melanoma, greater than 100000 nM; with IGROV1 ovarian, greater than 100000 nM.
`NC(CP(=O)(O)O)C(=O)O` (centres undefined): the TGI in the assay with UO-31 renal, with OVCAR-3 ovarian, in the assay with U251 CNS, in the assay on HCC-2998 colon, with NCI-H522 lung and in the assay with NCI-H226 lung was greater than 100 µM in each case. The TGI is greater than 100 µM with SNB-75 CNS, greater than 100 µM in the assay with HT29 colon, greater than 100000 nM with M14 melanoma and greater than 100000 nM in the assay with IGROV1 ovarian.
With `CS(=O)(=O)c1ccc2c(c1)C(=O)c1c-2n(CCCBr)c(=O)c2cc([N+](=O)[O-])ccc12`, the GI50 is 3120 nM in the assay on UO-31 renal; 28.8 µM with OVCAR-3 ovarian; 8.76 µM in the assay on U251 CNS; 24.8 µM in the assay with HCC-2998 colon; 4.87 µM in the assay on NCI-H522 lung; 26.5 µM in the assay with NCI-H226 lung. Further, the GI50 with SNB-75 CNS is 12.8 µM; with HT29 colon it was 29500 nM; with M14 melanoma it was 7110 nM; in the assay with IGROV1 ovarian it was 13.6 µM. In addition, the TGI with UO-31 renal, in the assay with OVCAR-3 ovarian, in the assay with U251 CNS, with HCC-2998 colon, in the assay on NCI-H522 lung and in the assay on NCI-H226 lung was greater than 100 µM each time. The TGI is 42.2 µM in the assay with SNB-75 CNS, greater than 100 µM in the assay on HT29 colon, greater than 100000 nM in the assay with M14 melanoma and greater than 100000 nM with IGROV1 ovarian.
Consider `C=C[C@H]1CN2CCc3c([nH]c4c([C@@H]5CCCN5C)c(O)ccc34)[C@@H]2C[C@@H]1C[C@H]1c2[nH]c3ccccc3c2CCN1C`, for which the GI50 was 1420 nM and 1440 nM in the assay on UO-31 renal; 0.142 µM in the assay on HCC-2998 colon; 1.27 µM in the assay with NCI-H226 lung; 1250 nM and 211 nM in the assay on M14 melanoma. For the same compound, the TGI is 2.8 µM [middle of 4 runs] in the assay with UO-31 renal; 2.8 µM and 3.16 µM with OVCAR-3 ovarian; 2.94 µM and 2.95 µM in the assay with U251 CNS; 0.297 µM in the assay with HCC-2998 colon; 3.66 µM in the assay on NCI-H522 lung; 2.96 µM and 3.13 µM and 3.97 µM with NCI-H226 lung. Moreover, the TGI is 2.47 µM in the assay with SNB-75 CNS; 3.21 µM and 2.95 µM with HT29 colon; 2750 nM and 436 nM and 2550 nM in the assay with M14 melanoma; 2670 nM and 2750 nM with IGROV1 ovarian.
Turning to `CCC1=C[C@@H]2CN(C1)Cc1c([nH]c3ccccc13)[C@@](C(=O)OC)(c1cc3c(cc1OC)N(C)[C@H]1[C@@](O)(C(=O)OC)[C@H](OC(C)=O)[C@]4(CC)C=CCN5CC[C@]31[C@@H]54)C2`, the GI50 is 1020 nM with UO-31 renal; less than 0.01 µM in the assay on OVCAR-3 ovarian; less than 0.01 µM in the assay on U251 CNS; less than 0.011 µM in the assay on HCC-2998 colon; less than 0.0227 µM with NCI-H522 lung; less than 0.0302 µM in the assay with NCI-H226 lung. Also, the GI50 with SNB-75 CNS was less than 0.01 µM; in the assay on HT29 colon, less than 10 nM; in the assay with M14 melanoma it was 10.3 nM; with IGROV1 ovarian it was less than 0.0136 µM. Also, the TGI in the assay on UO-31 renal was 18.6 µM; with OVCAR-3 ovarian, less than 0.01 µM; in the assay on U251 CNS, 8.42 µM; in the assay on HCC-2998 colon, 1.86 µM; in the assay on NCI-H522 lung, greater than 31.8 µM; in the assay with NCI-H226 lung it was 36.5 µM. For the same compound, the TGI in the assay with SNB-75 CNS is 7.92 µM; in the assay on HT29 colon, greater than 41.6 µM; in the assay with M14 melanoma it was 1010 nM; in the assay on IGROV1 ovarian, 463 nM.
As for `CCC(C)C(=O)O[C@H]1C(=O)O[C@@H]2C[C@H]3C(C)=CC(=O)[C@@H](O)[C@]3(C)[C@H]3[C@@H](O)[C@H](O)[C@@]4(C)OC[C@]32[C@@H]14` (some centres undefined), the TGI in the assay on UO-31 renal is 0.0859 µM; in the assay on OVCAR-3 ovarian, 0.0906 µM; in the assay with U251 CNS, less than 0.0345 µM; in the assay with HCC-2998 colon, less than 0.024 µM; in the assay on NCI-H522 lung, 0.0773 µM; with NCI-H226 lung, less than 0.0259 µM. The TGI with SNB-75 CNS was less than 0.0299 µM; in the assay with HT29 colon, 0.0272 µM; in the assay on M14 melanoma, less than 21.6 nM; in the assay with IGROV1 ovarian, 88.9 nM.
